% of control, % of inhibition and IC50 data for ten compounds are collected here from ChEMBL document CHEMBL5465560, “Selectivity Literature for EUbOPEN Chemogenomic Library” (2024).

Assay [1] addresses Activin receptor type-2A (Homo sapiens) (UniProt P27037). Kind of assay: Selectivity interaction (ProQinase) EUB0000171b ACVR2A.
The target of assay [2] is T1, Calcium/calmodulin-dependent protein kinase type IV (Homo sapiens) (UniProt Q16566).
T1 sequence (whole entry): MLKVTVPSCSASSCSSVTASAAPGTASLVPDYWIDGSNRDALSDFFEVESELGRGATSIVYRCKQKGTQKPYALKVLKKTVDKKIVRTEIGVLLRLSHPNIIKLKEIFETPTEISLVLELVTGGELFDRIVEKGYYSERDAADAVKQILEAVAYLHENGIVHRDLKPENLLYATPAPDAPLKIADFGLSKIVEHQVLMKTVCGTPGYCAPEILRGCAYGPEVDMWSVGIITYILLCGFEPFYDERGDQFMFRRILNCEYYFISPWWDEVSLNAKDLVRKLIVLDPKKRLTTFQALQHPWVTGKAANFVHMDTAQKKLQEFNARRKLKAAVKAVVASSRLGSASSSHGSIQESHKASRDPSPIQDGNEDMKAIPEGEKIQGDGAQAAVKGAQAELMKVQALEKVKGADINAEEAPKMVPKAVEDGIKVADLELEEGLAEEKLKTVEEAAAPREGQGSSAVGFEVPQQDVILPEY
Put plainly: Selectivity interaction (ProQinase) EUB0000171b CAMK4.

Assay [3] deals with High affinity nerve growth factor receptor (Homo sapiens, UniProt P04629). Kind of assay: Selectivity interaction (ProQinase) EUB0000171b NTRK1.
Chain of High affinity nerve growth factor receptor (P04629 33-796 limits assumed): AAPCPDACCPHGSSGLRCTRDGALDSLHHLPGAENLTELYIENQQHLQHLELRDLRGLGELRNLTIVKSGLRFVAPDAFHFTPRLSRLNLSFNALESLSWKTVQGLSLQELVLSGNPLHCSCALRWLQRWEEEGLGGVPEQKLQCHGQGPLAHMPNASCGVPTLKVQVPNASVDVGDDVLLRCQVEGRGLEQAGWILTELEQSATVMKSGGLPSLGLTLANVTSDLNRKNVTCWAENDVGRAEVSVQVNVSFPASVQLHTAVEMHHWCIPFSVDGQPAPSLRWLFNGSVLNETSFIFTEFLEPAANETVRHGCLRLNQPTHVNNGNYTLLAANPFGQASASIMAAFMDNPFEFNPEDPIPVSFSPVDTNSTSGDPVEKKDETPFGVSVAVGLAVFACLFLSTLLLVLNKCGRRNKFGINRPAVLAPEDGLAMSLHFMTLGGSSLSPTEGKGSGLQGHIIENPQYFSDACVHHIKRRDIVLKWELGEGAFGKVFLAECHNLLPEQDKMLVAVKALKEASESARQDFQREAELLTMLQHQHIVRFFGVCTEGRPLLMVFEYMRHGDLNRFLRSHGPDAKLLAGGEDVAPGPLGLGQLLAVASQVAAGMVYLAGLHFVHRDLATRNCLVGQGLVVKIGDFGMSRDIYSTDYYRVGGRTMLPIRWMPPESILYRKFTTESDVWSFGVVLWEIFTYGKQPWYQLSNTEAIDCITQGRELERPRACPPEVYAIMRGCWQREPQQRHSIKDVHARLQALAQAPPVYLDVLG
Assay [4] addresses T2, Serine/threonine-protein kinase 17A (Homo sapiens) (UniProt Q9UEE5).
T2 sequence (whole entry): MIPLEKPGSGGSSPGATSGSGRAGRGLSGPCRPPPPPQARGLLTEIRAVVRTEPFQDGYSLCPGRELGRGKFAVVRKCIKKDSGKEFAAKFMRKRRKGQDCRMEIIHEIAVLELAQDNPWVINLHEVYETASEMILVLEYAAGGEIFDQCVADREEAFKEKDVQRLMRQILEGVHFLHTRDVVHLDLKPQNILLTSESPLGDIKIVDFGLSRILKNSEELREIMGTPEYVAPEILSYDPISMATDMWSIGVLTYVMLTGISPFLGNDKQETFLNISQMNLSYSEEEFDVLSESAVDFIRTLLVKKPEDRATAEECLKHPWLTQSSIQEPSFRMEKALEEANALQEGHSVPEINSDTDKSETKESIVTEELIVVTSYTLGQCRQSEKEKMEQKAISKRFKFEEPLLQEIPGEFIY
Put plainly: Selectivity interaction (Ambit KINOMEscan and KiNATiv profiling in Jurkat cells) EUB0000090b STK17A. The format is cell-based. Particulars: at 1 µM.

The target in assay [5] is Calcium/calmodulin-dependent protein kinase type II subunit alpha (Homo sapiens, UniProt Q9UQM7). Put plainly: Selectivity interaction (KinomeScan (DiscoverX)) EUB0001079a CAMK2A. Particulars: at 1 µM.
Chain of Calcium/calmodulin-dependent protein kinase type II subunit alpha (Q9UQM7 whole entry): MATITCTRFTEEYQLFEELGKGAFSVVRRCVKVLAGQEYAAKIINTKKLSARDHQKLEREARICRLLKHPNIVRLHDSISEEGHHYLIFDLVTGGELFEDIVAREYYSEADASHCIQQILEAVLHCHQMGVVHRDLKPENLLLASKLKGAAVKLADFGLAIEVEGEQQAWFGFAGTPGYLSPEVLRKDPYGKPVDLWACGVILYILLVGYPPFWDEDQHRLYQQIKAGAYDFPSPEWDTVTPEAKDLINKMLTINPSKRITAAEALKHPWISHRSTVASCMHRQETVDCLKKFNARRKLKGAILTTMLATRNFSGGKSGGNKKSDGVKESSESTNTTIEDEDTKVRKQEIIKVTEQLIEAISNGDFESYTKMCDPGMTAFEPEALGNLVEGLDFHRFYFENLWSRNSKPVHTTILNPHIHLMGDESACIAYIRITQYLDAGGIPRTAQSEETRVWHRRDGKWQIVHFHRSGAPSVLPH
Assay [6] addresses Tyrosine-protein kinase Fyn (Homo sapiens) (UniProt P06241). Kind of assay: Selectivity interaction (KinomeScan (DiscoverX)) EUB0000655a FYN. Particulars: at 10 µM.
The target of assay [7] is Vascular endothelial growth factor receptor 2 (Homo sapiens, UniProt P35968). Kind of assay: Selectivity interaction (KinomeScan (DiscoverX)) EUB0000695a KDR. Particulars: at 100 nM.
Assay [8] addresses Tyrosine-protein kinase Fyn (Homo sapiens) (UniProt P06241). Kind of assay: Selectivity interaction (KinomeScan (DiscoverX)) EUB0000666a FYN. As to conditions: at 10 µM.
Assay [9] concerns the target MAP kinase-activated protein kinase 3 (Homo sapiens) (UniProt Q16644). Kind of assay: Selectivity interaction (Kinase panel (Invitrogen)) EUB0000639a MAPKAPK3. Particulars: at 200 nM.
In assay [10] the target is Cyclin-dependent kinase 18 (Homo sapiens) (UniProt Q07002). Kind of assay: Selectivity interaction (ActivX KiNativ screen (kinase selectivity in THP-1 cell lysates)) EUB0000639a CDK18. The class given is subcellular. As to conditions: lysate, at 0.01 µM.
Chain of Cyclin-dependent kinase 18 (Homo sapiens) (Q07002 whole entry): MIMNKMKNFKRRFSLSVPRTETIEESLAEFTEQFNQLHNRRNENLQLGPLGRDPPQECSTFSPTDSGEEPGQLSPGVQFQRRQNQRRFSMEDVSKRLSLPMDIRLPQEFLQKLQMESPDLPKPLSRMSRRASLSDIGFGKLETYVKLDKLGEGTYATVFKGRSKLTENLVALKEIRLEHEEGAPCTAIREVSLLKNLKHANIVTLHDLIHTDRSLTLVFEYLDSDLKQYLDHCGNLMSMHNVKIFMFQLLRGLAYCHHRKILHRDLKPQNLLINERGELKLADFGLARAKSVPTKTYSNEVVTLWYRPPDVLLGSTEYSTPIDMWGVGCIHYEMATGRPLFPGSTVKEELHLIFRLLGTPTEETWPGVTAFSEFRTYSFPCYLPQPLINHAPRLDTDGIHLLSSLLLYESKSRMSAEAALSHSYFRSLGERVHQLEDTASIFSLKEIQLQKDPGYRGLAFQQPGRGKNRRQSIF
The subject of assay [11] is Receptor-type tyrosine-protein kinase FLT3 (Homo sapiens), P36888 [UNDEFINED MUTATION]. Kind of assay: Selectivity interaction (KinomeScan (DiscoverX)) EUB0000311b FLT3. As to conditions: at 1 µM.
Assay [12] has as its target T3, Tyrosine-protein kinase ZAP-70 (Homo sapiens, UniProt P43403).
T3 sequence (P43403 whole entry): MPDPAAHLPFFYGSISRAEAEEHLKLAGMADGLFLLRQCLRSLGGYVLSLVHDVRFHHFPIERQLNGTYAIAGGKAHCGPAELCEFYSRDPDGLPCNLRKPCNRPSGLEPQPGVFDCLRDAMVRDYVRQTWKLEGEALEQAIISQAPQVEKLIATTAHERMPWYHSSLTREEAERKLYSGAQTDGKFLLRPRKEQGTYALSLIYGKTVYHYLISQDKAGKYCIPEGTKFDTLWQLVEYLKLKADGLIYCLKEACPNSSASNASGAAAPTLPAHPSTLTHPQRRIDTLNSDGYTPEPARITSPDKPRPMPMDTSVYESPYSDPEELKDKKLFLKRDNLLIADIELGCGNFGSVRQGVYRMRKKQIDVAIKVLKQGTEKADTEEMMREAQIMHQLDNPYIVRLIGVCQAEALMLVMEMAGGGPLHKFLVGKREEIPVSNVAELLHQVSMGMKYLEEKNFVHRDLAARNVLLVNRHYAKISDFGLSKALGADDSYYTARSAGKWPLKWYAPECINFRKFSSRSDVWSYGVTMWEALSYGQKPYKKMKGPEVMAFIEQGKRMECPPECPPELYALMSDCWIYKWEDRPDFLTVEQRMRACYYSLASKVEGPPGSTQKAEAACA
Kind of assay: Selectivity interaction (Kinase panel (enzymatic assay)) EUB0000595a ZAP70.

Assay [13] addresses Ribosomal protein S6 kinase alpha-6 (Homo sapiens, UniProt Q9UK32). Kind of assay: Selectivity interaction (KinomeScan (DiscoverX)) EUB0001619a RPS6KA6. Particulars: at 1 µM.
The target in assay [14] is Serine/threonine-protein kinase WNK3 (Homo sapiens) (UniProt Q9BYP7). Kind of assay: Selectivity interaction (KinomeScan (DiscoverX)) EUB0001619a WNK3. As to conditions: at 1 µM.

Chain of Activin receptor type-2A (Homo sapiens) (P27037 whole entry): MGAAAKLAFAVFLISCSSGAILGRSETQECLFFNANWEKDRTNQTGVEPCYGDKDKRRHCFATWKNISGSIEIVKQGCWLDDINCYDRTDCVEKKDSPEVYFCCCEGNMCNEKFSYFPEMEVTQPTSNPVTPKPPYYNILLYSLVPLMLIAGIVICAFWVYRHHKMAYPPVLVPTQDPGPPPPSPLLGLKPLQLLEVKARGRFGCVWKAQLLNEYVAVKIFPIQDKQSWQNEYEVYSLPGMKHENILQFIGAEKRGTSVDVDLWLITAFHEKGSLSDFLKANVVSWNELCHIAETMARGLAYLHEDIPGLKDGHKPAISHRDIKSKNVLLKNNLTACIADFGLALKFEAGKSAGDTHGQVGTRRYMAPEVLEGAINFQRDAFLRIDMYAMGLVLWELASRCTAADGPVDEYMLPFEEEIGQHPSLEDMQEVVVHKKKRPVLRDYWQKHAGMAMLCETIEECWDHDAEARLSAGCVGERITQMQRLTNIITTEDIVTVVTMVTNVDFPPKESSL
Chain of Tyrosine-protein kinase Fyn (Homo sapiens) (P06241 2-537 limits assumed): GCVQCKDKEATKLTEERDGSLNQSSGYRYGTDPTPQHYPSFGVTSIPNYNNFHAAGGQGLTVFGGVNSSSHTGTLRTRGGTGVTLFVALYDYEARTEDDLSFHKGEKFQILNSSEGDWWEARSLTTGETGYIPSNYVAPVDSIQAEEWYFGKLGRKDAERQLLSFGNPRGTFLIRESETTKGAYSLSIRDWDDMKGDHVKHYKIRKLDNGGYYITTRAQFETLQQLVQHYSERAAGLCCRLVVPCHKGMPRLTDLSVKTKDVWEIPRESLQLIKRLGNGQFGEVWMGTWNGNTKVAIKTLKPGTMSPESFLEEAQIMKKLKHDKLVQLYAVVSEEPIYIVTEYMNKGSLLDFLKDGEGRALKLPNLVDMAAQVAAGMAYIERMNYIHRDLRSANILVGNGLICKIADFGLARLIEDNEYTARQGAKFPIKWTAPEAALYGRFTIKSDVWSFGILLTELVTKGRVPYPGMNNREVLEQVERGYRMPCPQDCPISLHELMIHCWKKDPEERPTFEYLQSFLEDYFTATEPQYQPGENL
Chain of Ribosomal protein S6 kinase alpha-6 (Q9UK32 whole entry): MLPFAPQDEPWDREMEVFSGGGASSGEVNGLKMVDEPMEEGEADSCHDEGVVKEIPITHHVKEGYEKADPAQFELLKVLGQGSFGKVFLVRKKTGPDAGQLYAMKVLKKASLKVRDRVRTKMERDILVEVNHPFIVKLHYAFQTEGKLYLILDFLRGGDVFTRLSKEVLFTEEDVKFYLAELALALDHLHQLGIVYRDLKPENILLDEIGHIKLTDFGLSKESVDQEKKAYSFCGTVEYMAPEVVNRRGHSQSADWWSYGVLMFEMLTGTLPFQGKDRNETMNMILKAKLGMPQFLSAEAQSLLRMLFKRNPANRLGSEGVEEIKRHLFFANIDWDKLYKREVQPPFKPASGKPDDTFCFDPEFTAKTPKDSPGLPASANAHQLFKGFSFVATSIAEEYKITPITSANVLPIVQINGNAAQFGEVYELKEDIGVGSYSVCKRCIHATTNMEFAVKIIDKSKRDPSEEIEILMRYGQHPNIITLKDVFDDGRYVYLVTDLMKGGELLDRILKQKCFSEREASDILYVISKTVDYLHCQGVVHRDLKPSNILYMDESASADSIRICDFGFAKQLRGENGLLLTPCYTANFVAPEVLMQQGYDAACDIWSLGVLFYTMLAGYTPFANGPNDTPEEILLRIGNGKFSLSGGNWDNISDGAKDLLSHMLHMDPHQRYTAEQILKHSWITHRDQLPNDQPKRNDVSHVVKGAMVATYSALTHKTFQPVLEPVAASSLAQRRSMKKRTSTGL
Chain of Receptor-type tyrosine-protein kinase FLT3 (Homo sapiens), P36888 [UNDEFINED MUTATION] (P36888 whole entry, looked up, change not shown): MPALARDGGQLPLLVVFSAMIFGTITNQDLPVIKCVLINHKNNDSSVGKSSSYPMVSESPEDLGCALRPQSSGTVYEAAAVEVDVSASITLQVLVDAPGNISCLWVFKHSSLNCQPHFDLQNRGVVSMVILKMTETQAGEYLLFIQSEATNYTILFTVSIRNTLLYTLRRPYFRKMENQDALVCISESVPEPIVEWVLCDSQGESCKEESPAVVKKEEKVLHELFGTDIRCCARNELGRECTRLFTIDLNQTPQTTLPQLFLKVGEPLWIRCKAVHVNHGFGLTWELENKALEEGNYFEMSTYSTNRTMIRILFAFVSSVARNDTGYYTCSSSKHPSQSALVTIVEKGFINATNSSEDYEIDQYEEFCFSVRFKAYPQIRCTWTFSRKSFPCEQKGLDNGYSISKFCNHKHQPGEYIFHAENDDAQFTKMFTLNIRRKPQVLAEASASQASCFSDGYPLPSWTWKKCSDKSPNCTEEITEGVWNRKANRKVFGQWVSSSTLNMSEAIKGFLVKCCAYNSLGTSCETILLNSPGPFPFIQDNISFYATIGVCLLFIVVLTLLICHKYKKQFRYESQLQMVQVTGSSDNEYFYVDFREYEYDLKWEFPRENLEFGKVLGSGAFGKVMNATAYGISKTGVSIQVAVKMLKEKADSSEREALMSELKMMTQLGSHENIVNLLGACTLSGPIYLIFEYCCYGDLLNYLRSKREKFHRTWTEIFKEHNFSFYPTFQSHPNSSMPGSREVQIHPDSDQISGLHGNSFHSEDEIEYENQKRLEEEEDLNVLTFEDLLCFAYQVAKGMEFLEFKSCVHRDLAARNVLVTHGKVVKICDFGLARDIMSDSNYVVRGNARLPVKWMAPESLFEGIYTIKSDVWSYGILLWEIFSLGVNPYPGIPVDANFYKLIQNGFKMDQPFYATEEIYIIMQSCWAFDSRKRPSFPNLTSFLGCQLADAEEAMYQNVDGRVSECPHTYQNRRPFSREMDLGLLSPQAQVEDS
Chain of MAP kinase-activated protein kinase 3 (Homo sapiens) (Q16644 whole entry, looked up): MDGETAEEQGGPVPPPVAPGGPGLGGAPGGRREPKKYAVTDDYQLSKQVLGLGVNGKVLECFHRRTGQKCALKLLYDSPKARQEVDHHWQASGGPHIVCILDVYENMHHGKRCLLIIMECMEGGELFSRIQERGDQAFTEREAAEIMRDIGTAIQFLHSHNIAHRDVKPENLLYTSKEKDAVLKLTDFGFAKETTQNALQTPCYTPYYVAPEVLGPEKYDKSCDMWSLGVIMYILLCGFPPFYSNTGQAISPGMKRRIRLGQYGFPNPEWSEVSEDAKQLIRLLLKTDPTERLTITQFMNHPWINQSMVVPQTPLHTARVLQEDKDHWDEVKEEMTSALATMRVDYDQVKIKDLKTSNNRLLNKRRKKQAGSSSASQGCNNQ

For the compound `C=CC(=O)Nc1cccc(C(=O)Nc2ccc(Nc3cc(-c4[nH]c(SC)nc4C)ccn3)cc2)c1`, the % of control in assay [1] (at 1 µM) was found to be 81%; in assay [1] (at 5 µM) it was 80%; in assay [2] (at 1 µM), 110%; in [2] (at 5 µM) it was 91%; in assay [3] (at 1 µM), 81%; in assay [3] (at 5 µM) it was 58%.

In [4], `CN(C)C/C=C/C(=O)Nc1ccc(C(=O)N2CCCC(Nc3ncc(Cl)c(-c4c[nH]c5ccccc45)n3)C2)cc1` (configuration not stated) had a % of control of 70%.

For the compound `Nc1cnc(N2CCc3cc(S(=O)(=O)Nc4c(F)cc(Cl)cc4F)cc(N4CCCC4=O)c32)nc1` [TP-020n], the % of control in [5] was determined as 92%.

`CN(C)CCOc1ccc(-c2nc(-c3ccncc3)c(-c3ccc4c(c3)CC/C4=N\O)[nH]2)cc1` showed a % of control in [6] of 79%.

On to `Cc1cc(F)c(C(=O)Nc2cccc(-c3nncn3C(C)C)n2)cc1-n1cnc(C2CC2)c1`, for which the % of control in assay [7] came to 100%.

In assay [8], `O=C(NOC[C@H](O)CO)c1ccc(F)c(F)c1Nc1ccc(I)cc1F` gave a % of control of 64%.

With `CC[C@@H]1[C@H](F)C(=O)N[C@@H]1COc1nccc2cc(C(N)=O)c(OC)cc12` [ZIMLOVISERTIB], the % of inhibition in assay [9] was found to be 3.83%; in assay [10], 16.3%.

`CCc1ccccc1C(=O)Nc1n[nH]c2c(C)c(F)c(C3C(C#N)=C(C)N(C)C(C)=C3C#N)cc12` [BAY-3827] yielded a % of control in [11] of 12%.

By IC50 is commonly meant the concentration that gives 50% inhibition. A higher IC50 goes with lower potency. Turning to `COCC(=O)NC/C=C/c1ccc2ncnc(Nc3ccc(Oc4ccc(C)nc4)c(C)c3)c2c1` [CP-724714], the IC50 in assay [12] is > 10 µM.

Regarding `N#Cc1cccc(-c2c[nH]c3ncnc(N4CCOCC4)c23)c1`, the % of control came out at 29% in assay [13] and 100% in assay [14].
